Key:
[1] = tested on: lambsquarters; assay: Test C preemergence; format: in vivo, Chenopodium album; details: for Lambsquarters plant response rating: preemergence; for Plant response rating, Lambsquarters: Preemergence, 31 g ai/ha, scale 0 to 100, 0 no effect, 100 complete control
Method in brief: (§1)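 Whole-plant greenhouse test with surfactant-containing solvent formulation, applied preemergence to sown loam–sand pots or postemergence to 2–18 cm plants. Scored by eye 13 to 15 days on, 0–100 scale.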

[2] = tested on: rice; assay: Test B flooded paddy test; format: in vivo, Oryza sativa; details: Flood, 250 g ai/ha; 0 to 100 scale where 0 is no effect and 100 is complete control
Method in brief: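 Flooded to 3 cm at the 2-leaf stage, pots received compound through the paddy water and were kept at that depth under greenhouse conditions. After 13–15 days, effect was rated by eye relative to controls, 0 = none and 100 = complete control.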

[3] = tested on: large (Lg) crabgrass; assay: Test C preemergence; format: in vivo, Digitaria sanguinalis; details: for Crabgrass, Large plant response rating: preemergence; for Plant response rating, Crabgrass, Large: Preemergence, 31 g ai/ha, scale 0 to 100, 0 no effect, 100 complete control
Method in brief: as §1

[4] = tested on: wild oat; assay: Test C postemergence; format: in vivo, Avena fatua; details: for Plant response rating, Oat, Wild: scale 0 to 100 (0 no effect, 100 complete control)
Method in brief: as §1

[5] = tested on: wheat, winter; assay: Test C postemergence; format: in vivo, Triticum aestivum; details: for Plant response rating, Wheat: scale 0 to 100 (0 no effect, 100 complete control)
Method in brief: as §1

[6] = tested on: ragweed; assay: Test C postemergence; format: in vivo, Ambrosia elatior; details: for Plant response rating, Ragweed: scale 0 to 100 (0 no effect, 100 complete control)
Method in brief: as §1

[7] = tested on: kochia; assay: Test C postemergence; format: in vivo, Kochia scoparia
Method in brief: as §1

[8] = tested on: johnsongrass; assay: Test C preemergence; format: in vivo, Sorghum halepense; details: for Johnsongrass plant response rating: preemergence; for Plant response rating, Johnsongrass: Preemergence, 31 g ai/ha, scale 0 to 100, 0 no effect, 100 complete control
Method in brief: as §1

[9] = 16 g ai/ha, scale 0 to 100 (0 no effect, 100 complete control)
[10] = 62 g ai/ha, scale 0 (no effect) to 100 (complete control)
[11] = 125 g ai/ha, scale 0 (no effect) to 100 (complete control)
[12] = Postemergence, 31 g ai/ha, 13 to 15 days
[13] = Postemergence, 62 g ai/ha, scale 0 to 100 (0 no effect, 100 complete control)
[14] = 16 g ai/ha, postemergence, 0 is no effect, 100 is complete control
[15] = 125 g ai/ha, postemergence, visual rating

Row | Structure (SMILES) | Lambsquarters plant response rating [1, 9] | Lambsquarters plant response rating [1, 10] | Lambsquarters plant response rating [1, 11] | Plant response rating, Lambsquarters [1] | Plant response rating, Rice [2] | Crabgrass, Large plant response rating [3, 9] | Crabgrass, Large plant response rating [3, 10] | Crabgrass, Large plant response rating [3, 11] | Plant response rating, Crabgrass, Large [3] | Plant response rating, Oat, Wild ([4]; Postemergence, 62 g ai/ha) | Plant response rating, Wheat ([5]; Postemergence, 62 g ai/ha) | Plant response rating, Ragweed ([6]; Postemergence, 62 g ai/ha) | Plant response rating, Kochia [7, 13] | Johnsongrass plant response rating [8, 9] | Johnsongrass plant response rating [8, 10] | Johnsongrass plant response rating [8, 11] | Plant response rating, Johnsongrass [8] | other results
1 | CCOc1cnn(-c2c(C#N)cccc2Oc2ncc(F)cn2)c1 [Compound 89] | 45 | 95 | 100 | 80 | 20 | 80 | 100 | 100 | 100 | 5 | 0 | 60 | 60 | 0 | 20 | 75 | 0 | Plant response rating (0 to 100), Oat, Wild ([4]; 125 g ai/ha, postemergence): 15; Plant response rating, Oat, Wild [4, 12]: 5; Plant response rating (0 to 100), Wheat ([5]; 125 g ai/ha, postemergence): 5; Plant response rating, Wheat [5, 12]: 0; Plant response rating (0 to 100), Ragweed ([6]; 125 g ai/ha, postemergence): 70; Plant response rating, Ragweed [6, 12]: 40; Kochia plant response rating ([7]; 16 g ai/ha, postemergence, visual rating, scale 0 to 100 (0 no effect, 100 complete control), 13 to 15 days): 45; Plant response rating (0 to 100), Kochia ([7]; 125 g ai/ha, postemergence): 50; Plant response rating, Kochia ([7]; Postemergence, 31 g ai/ha, scale 0 to 100 (0 no effect, 100 complete control), 13 to 15 days): 50
2 | Clc1cnc(Oc2cccc(Br)c2-n2cc(Br)nn2)nc1 [Compound 129] | 50 | 100 | 100 | 40 | 0 | 75 | 100 | 100 | 95 | 15 | 0 | 40 | 95 | 0 | 40 | 90 | 10 | Plant response rating (0 to 100), Oat, Wild [4, 14]: 0; Plant response rating, Oat, Wild [4, 15]: 10; Plant response rating (0 to 100), Wheat [5, 14]: 0; Plant response rating, Wheat [5, 15]: 5; Plant response rating (0 to 100), Ragweed [6, 14]: 15; Plant response rating, Ragweed [6, 15]: 85; Plant response rating (0 to 100), Kochia [7, 14]: 90; Plant response rating, Kochia ([7]; 125 g ai/ha, postemergence, visual rating, scale 0 to 100 (0 no effect, 100 complete control)): 100

From patent US9695155B2, “Herbicidal substituted pyrimidinyloxy benzene compounds” (E. I. DU PONT DE NEMOURS AND COMPANY, priority 2013, dated 2017)
